Experimental data reported in publication PMC9394307, “Discovery of Putative Dual Inhibitor of Tubulin and EGFR by Phenotypic Approach on LASSBio-1586 Homologs” (Pharmaceuticals, 2022).
Where “and” joins values, the source holds several entries; their conditions need not be identical. Identical values can stand only once. Like-named read-outs stand apart in the source and are kept apart here.

Key:
LoVo [1] = assay: MTT cell viability assay, LoVo; assay type: cell-based; conditions: Homo sapiens, 48 h, value (95% CI)
PC-9 = assay: MTT cell viability assay, PC-9; assay type: cell-based, human; conditions: Homo sapiens, MTT, value (95% CI), read-out: CC50 (µM) (CI) PC-9
Description: (§1) The cytotoxic activity of compounds 3–13 was determined based on an MTT assay against different human tumor cell lines, using LASSBio-1586 (2), LASSBio-1735 (3), CA-4 (1) and pelitinib as standards (Table 2). To determine the cytotoxic selectivity index, compounds were also evaluated toward human lymphocytes (Table 3).
(§2) The target compounds were tested (0.0001–100 µM) for cytotoxic activity against selected human cancer cell lines, such as HL-60 (acute promyelocytic leukemia), MCF-7 (mammary adenocarcinoma), PC-3 (prostate adenocarcinoma), H1975 (non-small cell lung cancer—EGFR^L858R+T790M), PC-9 (non-small cell lung cancer—EGFR^L858R) H292 (mucoepidermoid pulmonary carcinoma—EGFR wild type), LoVo (colorectal adenocarcinoma—EGFRwild type) and GM16000 (lymphocyte). All the human cancer cell lines were purchased from Cell Bank of Rio de Janeiro—BCRJ. They were cultured in RPMI 1640 medium with 10% (v/v) FBS, 2 mM glutamine, at 37 °C in a humidified incubator containing 5% CO2.
(§3) The cytotoxicity of the compounds was evaluated by the MTT assay. […] For lymphocytic lines, a density of 0.3 × 10^6 cells/mL was used. Afterwards they were treated with varying concentrations of the target compounds 2–12 (0.0001–100 µM), CA-4 (1) and pelitinib at 37 °C, in triplicate. The medium was incubated with 20 μL of 5 mg/mL MTT solution for 3 h in a humidified incubator containing 5% CO2 [11].
(§4) The purple-colored formazan crystals formed in the wells were dissolved in DMSO and their absorbance was measured at 595 nm with a microplate reader (SpectraMax M5, Molecular Devices).

[2] = MTT cell viability assay, GM16000 lymphocytes; assay type: cell-based; conditions: GM16000 lymphocyte cells (non-tumor), human lymphocytes, value (95% CI)
LoVo [3] = assay: MTT cell viability assay, LoVo; assay type: cell-based; conditions: Homo sapiens, MTT, 72 h, value (95% CI), read-out: CC50 (µM) (CI) LoVo
Description: as §1, §2
(§5) The cytotoxicity of the compounds was evaluated by the MTT assay. The cell lines were cultured in 96 well plates for 72 h with a density of 0.1 × 10^5 cells/mL to 0.7 × 10^5 cells/mL to adherent cell lines. For lymphocytic lines, a density of 0.3 × 10^6 cells/mL was used. Afterwards they were treated with varying concentrations of the target compounds 2–12 (0.0001–100 µM), CA-4 (1) and pelitinib at 37 °C, in triplicate. The medium was incubated with 20 μL of 5 mg/mL MTT solution for 3 h in a humidified incubator containing 5% CO2 [11].
as §4

H1975 = assay: MTT cell viability assay, H1975; assay type: cell-based, human; conditions: Homo sapiens, MTT, value (95% CI), read-out: CC50 (µM) (CI) H1975
Description: as §1, §2, §3, §4

HL-60 = assay: MTT cell viability assay, HL-60; assay type: cell-based, human; conditions: MTT, value (95% CI), read-out: CC50 (µM) (CI) HL-60
Description: as §1, §2, §3, §4

H1975 cells = assay: Immunofluorescence of β-tubulin / microtubules; assay type: cell-based, human; conditions: H1975, 48 h, CA-4 0.3 µM, vincristine 0.5 µM, taxol 0.1 µM, LASSBio-1586 10 µM, LASSBio-1735 0.5 µM, LASSBio-2070 4.5 µM, LASSBio-2074 20 µM
Description: Antitubulin agents have been broadly classified into destabilizing or stabilizing agents, based on their interference with the dynamic balance of polymerization or depolymerization of microtubules. […] CA-4 (1, 0.3 µM), vincristine (0.5 µM) and taxol (0.1 µM) were used as standard controls.
After incubation, cells were rinsed with PBS and fixed with 4% paraformaldehyde in PBS for 10 min at room temperature. They were then permeabilized with 0.5% Triton-X 100 in PBS 3 times for 10 min. The same solution was used for all subsequent washing steps. Cells were incubated with an anti-beta-tubulin antibody for 1 h at 37 °C. After incubation, cells were washed for 30 min and incubated with Alexa Fluor® 488, conjugated secondary antibody for 1 h at 37 °C, and nuclei were labeled with DAPI (0.1 mg/mL in 0.9% NaCl).
Live cultured cells grown in coverslips were mounted in Prolong Gold solution (Molecular Probes, USA) and were imaged on a Leica TCS SPE confocal microscope (Leica Microsystems, Germany) using 63x 1.3 N.A. oil immersion and the images acquired by the LAS X software. Cell morphology, focusing on the microtubules was analyzed, qualitatively, using the public domain NIH ImageJ Program (developed at the National Institutes of the USA Health and available on the internet at http://imagej.nih.gov/ij/ (accessed on 1 September 2021).

[4] = MTT cell viability assay, GM16000 lymphocytes; assay type: cell-based; conditions: GM16000 lymphocyte cells (non-tumor), human lymphocytes, value (95% CI); remark: listed apart in the source
Description: as §1
To establish the cytotoxic selective index (SI) of LASSBio-1586 homologs, they were studied on human lymphocyte cell lines (GM16000), using the MTT assay. The SI was calculated by the ratio between the CC50 on tumor and non-tumor cell lines. Although there is no consensus, values of SI ≥ 10 is considered satisfactory to assign safety to a new cytotoxic agent. This value means that the compound is more than ten times more cytotoxic to the tumor cell line than to normal cell line.
as §2, §5, §4

PC-3 = assay: MTT cell viability assay, PC-3; assay type: cell-based; conditions: Homo sapiens, PC-3; MTT, 72 h; value (95% CI); read-out: CC50 (µM) (CI) PC-3
Description: as §1, §2, §5, §4

MCF-7 = assay: MTT cell viability assay, MCF-7; assay type: cell-based, human; conditions: MTT, 72 h, value (95% CI), read-out: CC50 (µM) (CI) MCF-7
Description: as §1, §2, §5, §4

H292 = assay: MTT cell viability assay, H292; assay type: cell-based, human; conditions: Homo sapiens, MTT, value (95% CI), read-out: CC50 (µM) (CI) H292
Description: as §1, §2, §3, §4

[5] = Homo sapiens, HL-60, 48 h, 48 h
[6] = Homo sapiens, HL-60, 72 h, 72 h

`COc1cc(C(=O)N/N=C/c2ccccc2)cc(OC)c1OC` [LASSBio-1586 (2), (E)-N’-benzylidene-3,4,5-trimetoxybenzohydrazide] gave a CC50 (LoVo [1]) of 1.72 µM, a CC50 (PC-9; PC-9, 48 h, 48 h) of 0.94 µM and a CC50 (PC-9; PC-9, 72 h, 72 h) of 0.587 µM. The CC50 at 48 h [2] was 0.763 µM, the CC50 (LoVo [3]) was 0.039 µM and the CC50 (H1975; NCI-H1975, 48 h, 48 h) was 2.02 µM. It also gave a CC50 (H1975; NCI-H1975, 72 h, 72 h) of 1.57 µM, a CC50 (HL-60; [5]) of 3.59 µM and a CC50 (HL-60; [6]) of 2.08 µM. For the same compound, the CC50 (HL-60; 72 h) was 2.13 µM, the “cell morphology after treatment” value (H1975 cells) was “more spread-out morphology” and the “effect on microtubules (stabilizing / destabilizing profile)” value (H1975 cells) was “cell morphology similar to microtubule-stabilizing drugs”. For the same compound, the “effect on microtubules (stabilizing / destabilizing profile)” value (H1975 cells; listed as 2 (LASSBio-1586)) was “microtubule destabilizing behavior”, the CC50 at 72 h [4] was 1.51 µM and the CC50 (PC-3) was 1.62 µM. The CC50 (MCF-7; Homo sapiens, MCF7, 72 h) was 7.53 µM, the CC50 (H292; NCI-H292, 48 h, 48 h) was 2.19 µM and the CC50 (H292; NCI-H292, 72 h, 72 h) was 1.4 µM.

`COc1cc(C(=O)N(C)/N=C/c2ccccc2)cc(OC)c1OC` [LASSBio-1735 (3), (E)-N’-benzylidene-3,4,5-trimethoxy-N-methylbenzohydrazide] showed a CC50 (LoVo [1]) of 0.479 µM, a CC50 (PC-9; PC-9, 48 h, 48 h) of 1.34 µM and a CC50 (PC-9; PC-9, 72 h, 72 h) of 0.09 µM. For the same compound, the CC50 at 48 h [2] was 0.059 µM, the CC50 (LoVo [3]) was 0.149 µM and the melting point was 110 °C and 110.56 °C. For the same compound, the CC50 (H1975; NCI-H1975, 48 h, 48 h) was 0.096 µM, the CC50 (H1975; NCI-H1975, 72 h, 72 h) was 0.079 µM and the CC50 (HL-60; [5]) was 8.77 µM. For the same compound, the CC50 (HL-60; [6]) was 0.039 µM, the “cell morphology after treatment” value (H1975 cells) was “more spread-out morphology” and the “effect on microtubules (stabilizing / destabilizing profile)” value (H1975 cells) was “cell morphology similar to microtubule-stabilizing drugs”. For the same compound, the “effect on microtubules (stabilizing / destabilizing profile)” value (H1975 cells; listed as 3 (LASSBio-1735)) was “microtubule destabilizing behavior”, the CC50 at 72 h [4] was 0.131 µM and the CC50 (PC-3) was 0.201 µM. The CC50 (MCF-7; Homo sapiens, MCF7, 72 h) was 0.28 µM, the CC50 (MCF-7) was 0.276 µM and the CC50 (H292; NCI-H292, 48 h, 48 h) was 0.152 µM. The CC50 (H292; NCI-H292, 72 h, 72 h) was 0.25 µM.

For `COc1cc(C(=O)N(Cc2ccccc2)/N=C/c2ccccc2)cc(OC)c1OC` [LASSBio-2070 (10), (E)-N-benzyl-N’-benzylidene-3,4,5-trimethoxybenzohydrazide], the CC50 (LoVo [1]) was 2.12 µM, the CC50 (PC-9; PC-9, 48 h, 48 h) was 0.244 µM and the CC50 (PC-9; PC-9, 72 h, 72 h) was 0.337 µM. The CC50 at 48 h [2] was 0.935 µM, the CC50 (LoVo [3]) was 0.208 µM and the melting point was 130 to 131 °C and 130.12 °C. It also gave a CC50 (H1975; NCI-H1975, 48 h, 48 h) of 0.903 µM, a CC50 (H1975; NCI-H1975, 72 h, 72 h) of 2.79 µM and a CC50 (HL-60; [5]) of 6.29 µM. For the same compound, the CC50 (HL-60; [6]) was 0.172 µM, the “cell morphology after treatment” value (H1975 cells) was “rounded shape” and the “effect on microtubules (stabilizing / destabilizing profile)” value (H1975 cells) was “typical response of microtubule destabilizing agents”. It also gave a CC50 at 72 h [4] of 1.05 µM, a CC50 (PC-3) of 0.361 µM and a CC50 (MCF-7; Homo sapiens, MCF7, 72 h) of 1.7 µM. The CC50 (H292; NCI-H292, 48 h, 48 h) was 0.147 µM and the CC50 (H292; NCI-H292, 72 h, 72 h) was 0.883 µM.

With `CCOC(=O)CN(/N=C/c1ccccc1)C(=O)c1cc(OC)c(OC)c(OC)c1` [LASSBio-2074 (11), Ethyl (E)-N-(benzylideneamino)-N-(3,4,5-trimethoxybenzoyl)glycinate] the CC50 (LoVo [1]) was 2.64 µM, the CC50 (PC-9; PC-9, 48 h, 48 h) was 1.41 µM and the CC50 (PC-9; PC-9, 72 h, 72 h) was 0.202 µM. The CC50 at 48 h [2] was 3.91 µM, the CC50 (LoVo [3]) was 0.106 µM and the melting point was 91 to 92 °C and 91.67 °C. For the same compound, the CC50 (H1975; NCI-H1975, 48 h, 48 h) was 4.83 µM, the CC50 (H1975; NCI-H1975, 72 h, 72 h) was 1.2 µM and the CC50 (HL-60; [5]) was 5.69 µM. For the same compound, the CC50 (HL-60; [6]) was 0.126 µM, the “cell morphology after treatment” value (H1975 cells) was “more spread-out morphology” and the “effect on microtubules (stabilizing / destabilizing profile)” value (H1975 cells) was “cell morphology similar to microtubule-stabilizing drugs”. It also gave a CC50 at 72 h [4] of 4.19 µM, a CC50 (PC-3) of 1.36 µM and a CC50 (MCF-7; Homo sapiens, MCF7, 72 h) of 0.869 µM. For the same compound, the CC50 (H292; NCI-H292, 48 h, 48 h) was 0.593 µM and the CC50 (H292; NCI-H292, 72 h, 72 h) was 0.75 µM.
